According to PubChem BioAssay (NCI):
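A five-concentration, 48-hour dose response in 96-well plates underlies each endpoint, interpolated linearly between surrounding concentrations. TGI is the concentration that stops growth completely.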

Experiments:
Experiment in all cases: inhibition of tumour cell growth, NCI panel, 48 h
T-47D breast = test system: T-47D breast
TK-10 renal = test system: TK-10 renal
HCC-2998 colon = test system: HCC-2998 colon
MDA-MB-231 breast = test system: MDA-MB-231 breast
UO-31 renal = test system: UO-31 renal
SF-268 CNS = test system: SF-268 CNS
SK-OV-3 ovarian = test system: SK-OV-3 ovarian
A549 NSCLC = test system: A549 NSCLC
HOP-62 NSCLC = test system: HOP-62 NSCLC
RXF 393 renal = test system: RXF 393 renal
K-562 leukemia = test system: K-562 leukemia
SNB-75 CNS = test system: SNB-75 CNS
MOLT-4 leukemia = test system: MOLT-4 leukemia
SW-620 colon = test system: SW-620 colon
M14 melanoma = test system: M14 melanoma
PC-3 prostate = test system: PC-3 prostate
SR leukemia = test system: SR leukemia
MALME-3M melanoma = test system: MALME-3M melanoma

Compound	TGI (T-47D breast)	TGI (TK-10 renal)	TGI (HCC-2998 colon)	TGI (MDA-MB-231 breast)	TGI (UO-31 renal)	TGI (SF-268 CNS)	TGI (SK-OV-3 ovarian)	TGI (A549 NSCLC)	TGI (HOP-62 NSCLC)	TGI (RXF 393 renal)	TGI (K-562 leukemia)	TGI (SNB-75 CNS)	TGI (MOLT-4 leukemia)	TGI (SW-620 colon)	TGI (M14 melanoma)	TGI (PC-3 prostate)	TGI (SR leukemia)	TGI (MALME-3M melanoma)
Cc1ccc(S(=O)(=O)N2CCSCCSCCSCCN(S(=O)(=O)c3ccc(C)cc3)CC2)cc1	> 100 µM	> 100 µM	> 100 µM	> 100 µM	> 100 µM	> 100 µM	> 100 µM	> 100 µM	> 100 µM	> 100 µM	> 100 µM	> 100 µM	> 100 µM	> 100 µM	> 100 µM	–	–	–
Cc1c(/C=N/NC(=S)N2CCCCC2)c(=O)n(-c2ccccc2)n1C	–	> 100 µM	> 100 µM	> 100 µM	> 100 µM	> 100 µM	> 100 µM	> 100 µM	> 100 µM	97.3 µM	> 100 µM	> 100 µM	> 100 µM	> 100 µM	> 100 µM	> 100 µM	> 100 µM	> 100 µM
COc1cc([C@@H]2c3cc4c(cc3[C@@H](Nc3ccc(Cl)cc3C(=O)c3ccccc3)[C@H]3COC(=O)[C@H]23)OCO4)cc(OC)c1OC	> 100 µM	> 100 µM	–	> 100 µM	> 100 µM	> 100 µM	> 100 µM	> 100 µM	> 100 µM	–	> 100 µM	–	> 100 µM	> 100 µM	> 100 µM	–	–	> 100 µM
CC(=O)Nc1cccc(N2C(=O)/C(=C\c3cccc(Oc4ccccc4)c3)SC2c2ccccc2)c1 (stereo not drawn)	> 100 µM	> 100 µM	> 100 µM	> 100 µM	> 100 µM	> 100 µM	> 100 µM	> 100 µM	> 100 µM	> 100 µM	> 100 µM	–	> 100 µM	> 100 µM	> 100 µM	–	47.1 µM	> 100 µM
COc1ccc(C2Cc3cc(OC)c(OC)c(OC)c3C2)cc1 (stereo not drawn)	–	> 100 µM	> 100 µM	–	64.8 µM	> 100 µM	> 100 µM	76.2 µM	> 100 µM	–	> 100 µM	84.8 µM	61.6 µM	> 100 µM	> 100 µM	–	–	> 100 µM
Cc1cc(O)c(/C=N/C(=S)Nc2ccc(S(N)(=O)=O)cc2)c(=O)o1	> 100 µM	> 100 µM	> 100 µM	> 100 µM	> 100 µM	> 100 µM	> 100 µM	> 100 µM	> 100 µM	> 100 µM	–	> 100 µM	> 100 µM	> 100 µM	> 100 µM	–	–	–
COc1cc(OC)c2c(=O)c3cccc(C)c3n(C)c2c1	–	> 100 µM	> 100 µM	> 100 µM	–	> 100 µM	> 100 µM	> 100 µM	> 100 µM	> 100 µM	59.4 µM	> 100 µM	> 100 µM	> 100 µM	> 100 µM	> 100 µM	> 100 µM	> 100 µM
O=[N+]1[C@H](c2ccccc2)[C@H](c2ccccc2)N1[O-]	–	30.9 µM	–	38.2 µM	28.5 µM	58.7 µM	96.5 µM	41.1 µM	40.7 µM	28.3 µM	> 100 µM	37.2 µM	55.2 µM	28.2 µM	29.6 µM	31.6 µM	37.7 µM	32 µM
COc1cc([C@@H]2c3cc4c(cc3[C@@H](NCc3cccc(C#N)c3)C3COC(=O)[C@@H]32)OCO4)cc(OC)c1O (stereo partly drawn)	–	6.84 µM	4.51 µM	–	5.52 µM	> 100 µM	4.12 µM	1.91 µM	1.79 µM	19.6 µM	25.4 µM	4.45 µM	1.43 µM	11.1 µM	6.22 µM	–	–	9.58 µM
Cc1sc2nc3n(c(=O)c2c1C)N=CN(c1ccc(Cl)cc1)C3	–	> 100 µM	> 100 µM	> 100 µM	> 100 µM	> 100 µM	> 100 µM	> 100 µM	> 100 µM	> 100 µM	> 100 µM	> 100 µM	> 100 µM	> 100 µM	> 100 µM	> 100 µM	> 100 µM	> 100 µM
CN1CCc2ccccc2C(C(=O)c2ccc3c(c2)OCO3)C1=O (stereo not drawn)	–	> 100 µM	–	–	> 100 µM	> 100 µM	> 100 µM	> 100 µM	> 100 µM	> 100 µM	> 100 µM	> 100 µM	> 100 µM	> 100 µM	> 100 µM	–	–	> 100 µM
O=C(Nc1ccccc1)Oc1ccc(C(=S)Nc2ccc(Br)cc2)cc1	75.1 µM	–	40.8 µM	–	–	> 100 µM	> 100 µM	–	82.1 µM	–	> 100 µM	–	66.2 µM	> 100 µM	–	89.8 µM	50.8 µM	65.1 µM
COc1ccccc1-c1c(C#N)c(N)[nH]c(=S)c1C#N	–	> 100 µM	> 100 µM	> 100 µM	> 100 µM	> 100 µM	–	> 100 µM	> 100 µM	> 100 µM	> 100 µM	–	> 100 µM	> 100 µM	> 100 µM	> 100 µM	> 100 µM	> 100 µM
CCOC(=O)C1=C(OC(OCC)C(CC)[Se]c2ccccc2)CCC1 (stereo not drawn)	–	> 100 µM	> 100 µM	–	96.2 µM	36.8 µM	> 100 µM	> 100 µM	> 100 µM	37.7 µM	> 100 µM	69.8 µM	73.5 µM	–	31.6 µM	–	83.4 µM	56.7 µM
COC(=O)/C=C(\C)CCC1SC1(C)C (stereo not drawn)	–	> 100 µM	> 100 µM	–	> 100 µM	> 100 µM	> 100 µM	> 100 µM	> 100 µM	> 100 µM	> 100 µM	> 100 µM	> 100 µM	> 100 µM	> 100 µM	–	–	> 100 µM
